# Measurements as given in ChEMBL document CHEMBL4387728, “Synthetic glycopeptides reveal specific binding pattern and conformational change at O-mannosylated position of α-dystroglycan by POMGnT1 catalyzed GlcNAc modification” (Bioorg Med Chem, 2019).
# Active and inactive are the calls of the source. The rule behind the calls is not given here. Peptide text beside a SMILES is read from it. * marks the point of attachment. X1 = CC(=O)N[C@H]1[C@H](O[C@H]2[C@@H](O)[C@H](O)[C@@H](CO)O[C@@H]2*)O[C@H](CO)[C@@H](O[C@@H]2O[C@H](CO)[C@H](O)[C@H](O[C@]3(C(=O)O)C[C@H](O)[C@@H](NC(C)=O)[C@H]([C@H](O)[C@H](O)CO)O3)[C@H]2O)[C@@H]1O; X2 = CC(=O)N[C@H]1[C@H](O[C@H]2[C@@H](O)[C@H](O)[C@@H](CO)O[C@@H]2*)O[C@H](CO)[C@@H](O[C@@H]2O[C@H](CO)[C@H](O)[C@H](O)[C@H]2O)[C@@H]1O; GlcNAc(β1-2)αMan = CC(=O)N[C@H]1[C@H](O[C@H]2[C@@H](O)[C@H](O)[C@@H](CO)O[C@@H]2*)O[C@H](CO)[C@@H](O)[C@@H]1O; αMan = OC[C@H]1O[C@H](*)[C@@H](O)[C@@H](O)[C@@H]1O; Hexanoyl(5-oxo) = CC(=O)CCCC(=O)*
# Key:
# [1] = biological target: Laminin subunit alpha-1 (Homo sapiens) (UniProt P25391); assay: Binding affinity to biotin-labeled human recombinant laminin-1 at 10 ug/ml in pH 7.4 Tris buffer by fluorescence microarray method
# Chain of Laminin subunit alpha-1 (Homo sapiens) (P25391 whole entry): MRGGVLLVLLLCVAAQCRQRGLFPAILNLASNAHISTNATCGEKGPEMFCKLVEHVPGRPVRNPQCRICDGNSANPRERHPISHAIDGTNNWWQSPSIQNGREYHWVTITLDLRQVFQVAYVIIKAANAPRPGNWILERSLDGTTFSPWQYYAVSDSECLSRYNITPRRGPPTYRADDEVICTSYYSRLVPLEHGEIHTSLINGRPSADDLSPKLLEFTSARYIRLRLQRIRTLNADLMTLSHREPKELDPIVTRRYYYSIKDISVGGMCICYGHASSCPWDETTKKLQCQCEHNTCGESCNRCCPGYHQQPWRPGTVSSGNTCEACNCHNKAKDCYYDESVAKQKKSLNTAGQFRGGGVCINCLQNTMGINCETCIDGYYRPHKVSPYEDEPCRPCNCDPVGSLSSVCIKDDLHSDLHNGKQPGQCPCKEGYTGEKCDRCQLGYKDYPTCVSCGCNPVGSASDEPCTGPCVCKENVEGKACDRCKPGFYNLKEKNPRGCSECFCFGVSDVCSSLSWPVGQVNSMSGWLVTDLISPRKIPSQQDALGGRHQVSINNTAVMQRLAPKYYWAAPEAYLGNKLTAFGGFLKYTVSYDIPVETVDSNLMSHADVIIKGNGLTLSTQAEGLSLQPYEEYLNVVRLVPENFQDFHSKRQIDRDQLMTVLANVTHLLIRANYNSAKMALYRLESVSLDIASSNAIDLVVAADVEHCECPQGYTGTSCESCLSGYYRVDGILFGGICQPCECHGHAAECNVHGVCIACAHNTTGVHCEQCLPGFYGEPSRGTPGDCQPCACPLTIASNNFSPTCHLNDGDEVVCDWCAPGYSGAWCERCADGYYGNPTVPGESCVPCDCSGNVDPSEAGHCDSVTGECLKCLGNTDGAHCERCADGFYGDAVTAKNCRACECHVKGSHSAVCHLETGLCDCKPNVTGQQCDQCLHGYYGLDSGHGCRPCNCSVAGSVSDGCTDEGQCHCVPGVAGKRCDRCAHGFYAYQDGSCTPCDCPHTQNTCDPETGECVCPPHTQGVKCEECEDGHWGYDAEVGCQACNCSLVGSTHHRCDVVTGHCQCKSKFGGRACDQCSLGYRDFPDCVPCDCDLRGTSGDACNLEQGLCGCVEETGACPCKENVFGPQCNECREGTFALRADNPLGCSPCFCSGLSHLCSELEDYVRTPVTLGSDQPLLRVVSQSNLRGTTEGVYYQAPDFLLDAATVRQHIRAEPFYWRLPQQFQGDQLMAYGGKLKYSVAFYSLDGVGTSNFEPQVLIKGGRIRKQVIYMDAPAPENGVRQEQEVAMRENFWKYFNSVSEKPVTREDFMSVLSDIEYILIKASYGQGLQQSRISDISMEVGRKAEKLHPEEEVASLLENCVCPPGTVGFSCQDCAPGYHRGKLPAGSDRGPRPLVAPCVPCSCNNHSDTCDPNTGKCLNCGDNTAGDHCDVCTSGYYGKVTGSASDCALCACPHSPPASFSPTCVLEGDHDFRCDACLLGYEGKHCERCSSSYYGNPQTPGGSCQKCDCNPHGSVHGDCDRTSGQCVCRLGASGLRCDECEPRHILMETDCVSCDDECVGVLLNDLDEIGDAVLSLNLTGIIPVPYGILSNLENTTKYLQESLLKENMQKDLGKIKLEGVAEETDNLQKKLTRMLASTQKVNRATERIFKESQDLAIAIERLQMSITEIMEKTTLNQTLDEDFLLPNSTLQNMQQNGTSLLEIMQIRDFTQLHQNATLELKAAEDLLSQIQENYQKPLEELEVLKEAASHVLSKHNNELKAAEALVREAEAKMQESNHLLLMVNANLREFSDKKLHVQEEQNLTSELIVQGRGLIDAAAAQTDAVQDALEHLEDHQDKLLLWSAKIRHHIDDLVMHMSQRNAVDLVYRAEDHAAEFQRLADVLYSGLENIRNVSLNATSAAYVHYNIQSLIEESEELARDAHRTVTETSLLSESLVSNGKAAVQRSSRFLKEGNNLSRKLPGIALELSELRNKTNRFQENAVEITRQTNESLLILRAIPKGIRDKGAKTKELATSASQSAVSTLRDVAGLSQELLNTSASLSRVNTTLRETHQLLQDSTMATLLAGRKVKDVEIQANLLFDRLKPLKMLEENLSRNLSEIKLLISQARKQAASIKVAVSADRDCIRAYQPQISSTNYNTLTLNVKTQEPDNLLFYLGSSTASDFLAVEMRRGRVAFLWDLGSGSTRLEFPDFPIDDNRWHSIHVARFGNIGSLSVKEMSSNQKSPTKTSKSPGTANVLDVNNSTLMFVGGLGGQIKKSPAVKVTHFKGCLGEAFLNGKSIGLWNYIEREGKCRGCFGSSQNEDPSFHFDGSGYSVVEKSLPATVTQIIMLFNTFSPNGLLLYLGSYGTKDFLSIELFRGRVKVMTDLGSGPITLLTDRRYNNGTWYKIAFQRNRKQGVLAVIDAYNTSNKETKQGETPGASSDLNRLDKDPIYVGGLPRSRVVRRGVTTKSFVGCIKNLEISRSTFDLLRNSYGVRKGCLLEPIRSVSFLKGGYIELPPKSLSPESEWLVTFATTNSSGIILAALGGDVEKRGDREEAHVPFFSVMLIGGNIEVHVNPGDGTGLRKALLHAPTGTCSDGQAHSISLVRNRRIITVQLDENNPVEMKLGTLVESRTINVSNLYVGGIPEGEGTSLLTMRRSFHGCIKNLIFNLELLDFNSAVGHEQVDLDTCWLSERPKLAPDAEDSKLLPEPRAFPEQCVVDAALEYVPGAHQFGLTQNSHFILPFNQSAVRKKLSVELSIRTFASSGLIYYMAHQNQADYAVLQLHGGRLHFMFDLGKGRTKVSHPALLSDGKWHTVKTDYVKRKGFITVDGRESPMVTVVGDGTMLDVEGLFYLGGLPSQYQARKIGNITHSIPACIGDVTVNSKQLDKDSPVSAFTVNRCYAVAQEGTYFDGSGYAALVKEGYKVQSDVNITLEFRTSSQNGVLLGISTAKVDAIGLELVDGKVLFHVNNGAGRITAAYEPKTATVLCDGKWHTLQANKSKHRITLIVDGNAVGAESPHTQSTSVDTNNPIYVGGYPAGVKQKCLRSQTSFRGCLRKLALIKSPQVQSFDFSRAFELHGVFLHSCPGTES
# Triticum aestivum = assay: Binding affinity to biotin-labeled Wheat germ agglutinin in pH 7.4 Tris buffer by fluorescence microarray method
# [2] = Binding affinity to biotin-labeled Agaricus bisporus agglutinin in pH 7.4 Tris buffer by fluorescence microarray method
# Maackia amurensis = assay: Binding affinity to biotin-labeled Maackia amurensis agglutinin in pH 7.4 Tris buffer by fluorescence microarray method
# [3] = system: Sambucus racemosa subsp. sieboldiana; assay: Binding affinity to biotin-labeled Sambucus sieboldiana agglutinin in pH 7.4 Tris buffer by fluorescence microarray method
# [4] = biological target: Laminin subunit alpha-1 (Homo sapiens) (UniProt P25391); assay: Binding affinity to biotin-labeled human recombinant laminin-1 at 10 ug/ml in pH 5.6 MES buffer by fluorescence microarray method
# Arachis hypogaea = assay: Binding affinity to biotin-labeled Arachis hypogaea agglutinin in pH 7.4 Tris buffer by fluorescence microarray method
# [5] = biological target: Lactotransferrin (Homo sapiens) (UniProt P02788); assay: Binding affinity to biotin-labeled lactoferrin (unknown origin) at 10 ug/ml in pH 5.6 MES buffer by fluorescence microarray method
# Chain of Lactotransferrin (Homo sapiens) (P02788 whole entry): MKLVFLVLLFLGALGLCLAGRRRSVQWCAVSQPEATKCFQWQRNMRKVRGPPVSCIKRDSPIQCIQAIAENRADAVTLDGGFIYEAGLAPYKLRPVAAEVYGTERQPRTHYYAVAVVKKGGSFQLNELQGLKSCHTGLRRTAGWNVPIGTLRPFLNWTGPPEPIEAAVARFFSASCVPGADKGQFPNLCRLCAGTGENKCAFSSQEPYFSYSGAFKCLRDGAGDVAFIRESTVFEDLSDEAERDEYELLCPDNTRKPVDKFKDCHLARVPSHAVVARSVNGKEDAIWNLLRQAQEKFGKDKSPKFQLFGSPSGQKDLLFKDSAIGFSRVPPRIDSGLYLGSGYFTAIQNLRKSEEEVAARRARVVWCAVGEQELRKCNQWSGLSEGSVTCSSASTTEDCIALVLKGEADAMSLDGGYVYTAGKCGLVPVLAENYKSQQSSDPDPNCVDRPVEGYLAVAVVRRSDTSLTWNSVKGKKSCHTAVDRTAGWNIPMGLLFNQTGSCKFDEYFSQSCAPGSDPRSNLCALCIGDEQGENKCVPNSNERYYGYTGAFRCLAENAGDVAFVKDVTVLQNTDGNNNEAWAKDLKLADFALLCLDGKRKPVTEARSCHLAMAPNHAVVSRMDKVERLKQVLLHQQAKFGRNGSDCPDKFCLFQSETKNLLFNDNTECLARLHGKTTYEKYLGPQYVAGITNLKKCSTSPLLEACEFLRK
# Homo sapiens [6] = organism: Homo sapiens; assay: Binding affinity to biotin-labeled human recombinant laminin-2 at 10 ug/ml in 5.6 MES buffer by fluorescence microarray method
# [7] = biological target: Lactotransferrin (Homo sapiens) (UniProt P02788); assay: Binding affinity to biotin-labeled lactoferrin (unknown origin) at 10 ug/ml in pH 7.4 Tris buffer by fluorescence microarray method
# Canavalia ensiformis = assay: Binding affinity to biotin-labeled Canavalia ensiformis agglutinin in pH 7.4 Tris buffer by fluorescence microarray method
# Homo sapiens [8] = organism: Homo sapiens; assay: Binding affinity to biotin-labeled human recombinant laminin-2 at 10 ug/ml in pH 7.4 Tris buffer by fluorescence microarray method
# Erythrina crista-galli = assay: Binding affinity to biotin-labeled Erythrina crista-galli agglutinin in pH 7.4 Tris buffer by fluorescence microarray method
# Datura stramonium = assay: Binding affinity to biotin-labeled Datura stramonium agglutinin in pH 7.4 Tris buffer by fluorescence microarray method
SMILES,Activity [1],Activity (Triticum aestivum),Activity [2],Activity (Maackia amurensis),Activity [3],Activity [4],Activity (Arachis hypogaea),Activity [5],Activity (Homo sapiens [6]),Activity [7],Activity (Canavalia ensiformis),Activity (Homo sapiens [8]),Activity (Erythrina crista-galli),Activity (Datura stramonium)
CC[C@H](C)[C@H](NC(=O)[C@H](C)NC(=O)CNC(=O)[C@H](CCCNC(=N)N)NC(=O)[C@@H](NC(=O)CCCC(C)=O)[C@@H](C)O)C(=O)N[C@H](C(=O)N[C@@H](CCC(N)=O)C(=O)N[C@H](C(=O)N1CCC[C@H]1C(=O)N[C@H](C(=O)N[C@@H](CC(C)C)C(=O)NCC(=O)N1CCC[C@H]1C(=O)N[C@H](C(=O)N[C@@H](CCC(N)=O)C(=O)N1CCC[C@H]1C(=O)N[C@H](C(=O)N[C@@H](CCCNC(=N)N)C(=O)N[C@H](C(N)=O)C(C)C)[C@@H](C)O[C@H]1O[C@H](CO)[C@@H](O)[C@H](O)[C@@H]1O[C@@H]1O[C@H](CO)[C@@H](O[C@@H]2O[C@H](CO)[C@H](O)[C@H](O[C@]3(C(=O)O)C[C@H](O)[C@@H](NC(C)=O)[C@H]([C@H](O)[C@H](O)CO)O3)[C@H]2O)[C@H](O)[C@H]1NC(C)=O)[C@@H](C)CC)[C@@H](C)O)[C@@H](C)O)[C@@H](C)CC ({Hexanoyl(5-oxo)}-TRGAIIQTPTLGPIQPT(X1)RV-NH2),Active,Active,Active,inactive,Active,Active,Active,Active,Active,inactive,Active,inactive,Active,inactive
CC[C@H](C)[C@H](NC(=O)[C@H](C)NC(=O)CNC(=O)[C@H](CCCNC(=N)N)NC(=O)[C@@H](NC(=O)CCCC(C)=O)[C@@H](C)O)C(=O)N[C@H](C(=O)N[C@@H](CCC(N)=O)C(=O)N[C@H](C(=O)N1CCC[C@H]1C(=O)N[C@H](C(=O)N[C@@H](CC(C)C)C(=O)NCC(=O)N1CCC[C@H]1C(=O)N[C@H](C(=O)N[C@@H](CCC(N)=O)C(=O)N1CCC[C@H]1C(=O)N[C@H](C(=O)N[C@@H](CCCNC(=N)N)C(=O)N[C@H](C(N)=O)C(C)C)[C@@H](C)O[C@H]1O[C@H](CO)[C@@H](O)[C@H](O)[C@@H]1O[C@@H]1O[C@H](CO)[C@@H](O)[C@H](O)[C@H]1NC(C)=O)[C@@H](C)CC)[C@@H](C)O[C@H]1O[C@H](CO)[C@@H](O)[C@H](O)[C@@H]1O[C@@H]1O[C@H](CO)[C@@H](O)[C@H](O)[C@H]1NC(C)=O)[C@@H](C)O)[C@@H](C)CC ({Hexanoyl(5-oxo)}-TRGAIIQTPT(GlcNAc(β1-2)αMan)LGPIQPT(GlcNAc(β1-2)αMan)RV-NH2),Active,Active,Active,inactive,Active,Active,Active,Active,Active,inactive,Active,inactive,Active,inactive
CC[C@H](C)[C@H](NC(=O)[C@H](C)NC(=O)CNC(=O)[C@H](CCCNC(=N)N)NC(=O)[C@@H](NC(=O)CCCC(C)=O)[C@@H](C)O)C(=O)N[C@H](C(=O)N[C@@H](CCC(N)=O)C(=O)N[C@H](C(=O)N1CCC[C@H]1C(=O)N[C@H](C(=O)N[C@@H](CC(C)C)C(=O)NCC(=O)N1CCC[C@H]1C(=O)N[C@H](C(=O)N[C@@H](CCC(N)=O)C(=O)N1CCC[C@H]1C(=O)N[C@H](C(=O)N[C@@H](CCCNC(=N)N)C(=O)N[C@H](C(N)=O)C(C)C)[C@@H](C)O[C@H]1O[C@H](CO)[C@@H](O)[C@H](O)[C@@H]1O[C@@H]1O[C@H](CO)[C@@H](O[C@@H]2O[C@H](CO)[C@H](O)[C@H](O)[C@H]2O)[C@H](O)[C@H]1NC(C)=O)[C@@H](C)CC)[C@@H](C)O[C@H]1O[C@H](CO)[C@@H](O)[C@H](O)[C@@H]1O[C@@H]1O[C@H](CO)[C@@H](O[C@@H]2O[C@H](CO)[C@H](O)[C@H](O)[C@H]2O)[C@H](O)[C@H]1NC(C)=O)[C@@H](C)O)[C@@H](C)CC ({Hexanoyl(5-oxo)}-TRGAIIQTPT(X2)LGPIQPT(X2)RV-NH2),Active,Active,Active,inactive,Active,Active,Active,Active,Active,inactive,Active,inactive,Active,inactive
CC[C@H](C)[C@H](NC(=O)[C@H](C)NC(=O)CNC(=O)[C@H](CCCNC(=N)N)NC(=O)[C@@H](NC(=O)CCCC(C)=O)[C@@H](C)O)C(=O)N[C@H](C(=O)N[C@@H](CCC(N)=O)C(=O)N[C@H](C(=O)N1CCC[C@H]1C(=O)N[C@H](C(=O)N[C@@H](CC(C)C)C(=O)NCC(=O)N1CCC[C@H]1C(=O)N[C@H](C(=O)N[C@@H](CCC(N)=O)C(=O)N1CCC[C@H]1C(=O)N[C@H](C(=O)N[C@@H](CCCNC(=N)N)C(=O)N[C@H](C(N)=O)C(C)C)[C@@H](C)O[C@H]1O[C@H](CO)[C@@H](O)[C@H](O)[C@@H]1O)[C@@H](C)CC)[C@@H](C)O[C@H]1O[C@H](CO)[C@@H](O)[C@H](O)[C@@H]1O[C@@H]1O[C@H](CO)[C@@H](O[C@@H]2O[C@H](CO)[C@H](O)[C@H](O[C@]3(C(=O)O)C[C@H](O)[C@@H](NC(C)=O)[C@H]([C@H](O)[C@H](O)CO)O3)[C@H]2O)[C@H](O)[C@H]1NC(C)=O)[C@@H](C)O)[C@@H](C)CC ({Hexanoyl(5-oxo)}-TRGAIIQTPT(X1)LGPIQPT(αMan)RV-NH2),Active,Active,Active,inactive,Active,Active,Active,Active,Active,inactive,Active,inactive,Active,inactive
CC[C@H](C)[C@H](NC(=O)[C@H](C)NC(=O)CNC(=O)[C@H](CCCNC(=N)N)NC(=O)[C@@H](NC(=O)CCCC(C)=O)[C@@H](C)O)C(=O)N[C@H](C(=O)N[C@@H](CCC(N)=O)C(=O)N[C@H](C(=O)N1CCC[C@H]1C(=O)N[C@H](C(=O)N[C@@H](CC(C)C)C(=O)NCC(=O)N1CCC[C@H]1C(=O)N[C@H](C(=O)N[C@@H](CCC(N)=O)C(=O)N1CCC[C@H]1C(=O)N[C@H](C(=O)N[C@@H](CCCNC(=N)N)C(=O)N[C@H](C(N)=O)C(C)C)[C@@H](C)O)[C@@H](C)CC)[C@@H](C)O[C@H]1O[C@H](CO)[C@@H](O)[C@H](O)[C@@H]1O[C@@H]1O[C@H](CO)[C@@H](O)[C@H](O)[C@H]1NC(C)=O)[C@@H](C)O)[C@@H](C)CC ({Hexanoyl(5-oxo)}-TRGAIIQTPT(GlcNAc(β1-2)αMan)LGPIQPTRV-NH2),Active,Active,Active,inactive,Active,Active,Active,Active,Active,inactive,Active,inactive,Active,inactive
CC[C@H](C)[C@H](NC(=O)[C@H](C)NC(=O)CNC(=O)[C@H](CCCNC(=N)N)NC(=O)[C@@H](NC(=O)CCCC(C)=O)[C@@H](C)O)C(=O)N[C@H](C(=O)N[C@@H](CCC(N)=O)C(=O)N[C@H](C(=O)N1CCC[C@H]1C(=O)N[C@H](C(=O)N[C@@H](CC(C)C)C(=O)NCC(=O)N1CCC[C@H]1C(=O)N[C@H](C(=O)N[C@@H](CCC(N)=O)C(=O)N1CCC[C@H]1C(=O)N[C@H](C(=O)N[C@@H](CCCNC(=N)N)C(=O)N[C@H](C(N)=O)C(C)C)[C@@H](C)O)[C@@H](C)CC)[C@@H](C)O[C@H]1O[C@H](CO)[C@@H](O)[C@H](O)[C@@H]1O[C@@H]1O[C@H](CO)[C@@H](O[C@@H]2O[C@H](CO)[C@H](O)[C@H](O[C@]3(C(=O)O)C[C@H](O)[C@@H](NC(C)=O)[C@H]([C@H](O)[C@H](O)CO)O3)[C@H]2O)[C@H](O)[C@H]1NC(C)=O)[C@@H](C)O)[C@@H](C)CC ({Hexanoyl(5-oxo)}-TRGAIIQTPT(X1)LGPIQPTRV-NH2),Active,Active,Active,inactive,Active,Active,Active,Active,Active,inactive,Active,inactive,Active,inactive
